Test results: patent US8367723B2, “Selenoquinone-derived active organometallic complexes, methods for synthesizing same, and uses thereof” (Centre National de la Recherche Scientifique—CNRS, priority 2009, dated 2013)

Experiments:
[1] = test system: A2780 ovarian cancer cells; experiment: MTT cytotoxicity test on A2780 ovarian cancer cells; assay type: cell-based; conditions: A2780 ovarian cancer cell line, 72 hours incubation
Experimental: (§1) The biological (cytotoxicity) properties of the complexes synthesized above were tested on A2780 and A2780cisR (cisplatin-resistant) ovarian cancer cells according to a conventional procedure described below, and the IC50 values obtained were compared with those obtained under the same conditions with the cisplatin complex Pt (NH3)2Cl2.
(§2) The A2780 and A2780cisR ovarian cancer cell lines were obtained from The European Collection of Cell Cultures (ECACC) (Salisbury, UK). The cells were cultured in RPMI medium comprising glucose, 5% of fetal calf serum (FCS) and antibiotics, at 37° C. and 5% CO2.
(§3) The cytotoxicity was determined using the MTT (3-(4,5-dimethyl-2-thiazolyl)-2,5-diphenyl-2H-tetrazolium bromide) test (MOSMANN, 1983).
(§4) The cells were distributed in 96-well plates, as monolayers, with 100 μl of solution (approximately 20 000 cells) per well, and were preincubated for 24 hours in a medium supplemented with 10% of FCS.
(§5) The compounds were prepared in DMSO solution, were then dissolved in the culture medium and were successively diluted to the appropriate concentration, in order to obtain a final DMSO concentration of 0.5%. 100 μl of solution of these compounds were added to each well and the plates were incubated for 72 hours. Subsequently, MTT (5 mg/ml) was added to the cells and the plates were incubated for 2 hours. The culture medium was removed by suction and the purple formazan crystals formed by the mitochondrial dehydrogenase activity of the living cells were dissolved in DMSO.
(§6) The optical density, which is directly proportional to the number of living cells, was quantified at 540 nm using a multiwell plate reader and the fraction of living cells was quantified from the absorbance of untreated control cells. Evaluation was carried out from two independent experiments, each comprising 3 microcultures per concentration level.

[2] = test system: A2780cisR (cisplatin-resistant) ovarian cancer cells; experiment: MTT cytotoxicity test on A2780cisR (cisplatin-resistant) ovarian cancer cells; assay type: cell-based; conditions: A2780cisR (cisplatin-resistant) cell line, 72 hours incubation
Experimental: as §1, §2, §3, §4, §5, §6

N.N.[Cl][Pt][Cl] [cis-[Pt(NH3)2Cl2], cis-diamminedichloroplatinum(II)]
IC50 [1]: 3 µM
IC50 [2]: 25 µM

o-[(C5Me5)Ir(η^4-benzoquinone)] [compound 3]
IC50 [1]: > 400 µM

o-[(C5Me5)Ir(η^4-dithiobenzoquinone)] [compound 5]
IC50 [1]: 49 µM

o-[(C5Me5)Rh(η^4-benzoquinone)] [compound 1]
IC50 [1]: > 400 µM

p-[(C5Me5)Ir(η^4-2,5-dimethyldiselenobenzoquinone)] [compound 10]
IC50 [1]: 6.2 µM
IC50 [2]: 7.3 µM

p-[(C5Me5)Ir(η^4-benzoquinone)] [compound 4]
IC50 [1]: 93 µM

p-[(C5Me5)Ir(η^4-diselenobenzoquinone)] [compound 8]
IC50 [1]: 5 µM

p-[(C5Me5)Ir(η^4-dithiobenzoquinone)] [compound 6]
IC50 [1]: 154 µM

p-[(C5Me5)Ir(η^4-monoselenobenzoquinone)] [compound 9]
IC50 [1]: 12.3 µM
IC50 [2]: 8.4 µM

p-[(C5Me5)Rh(η^4-benzoquinone)] [compound 2]
IC50 [1]: > 400 µM
